What was measured:
[1] = target: T1, PIP4K2C (Homo sapiens, UniProt Q8TBX8); experiment: KiNativ ATP-probe chemoproteomics in A375 cells treated with WX8; in vitro kinase binding assay (Fig. 2F); type: biochemical
T1 sequence (Q8TBX8 2-421): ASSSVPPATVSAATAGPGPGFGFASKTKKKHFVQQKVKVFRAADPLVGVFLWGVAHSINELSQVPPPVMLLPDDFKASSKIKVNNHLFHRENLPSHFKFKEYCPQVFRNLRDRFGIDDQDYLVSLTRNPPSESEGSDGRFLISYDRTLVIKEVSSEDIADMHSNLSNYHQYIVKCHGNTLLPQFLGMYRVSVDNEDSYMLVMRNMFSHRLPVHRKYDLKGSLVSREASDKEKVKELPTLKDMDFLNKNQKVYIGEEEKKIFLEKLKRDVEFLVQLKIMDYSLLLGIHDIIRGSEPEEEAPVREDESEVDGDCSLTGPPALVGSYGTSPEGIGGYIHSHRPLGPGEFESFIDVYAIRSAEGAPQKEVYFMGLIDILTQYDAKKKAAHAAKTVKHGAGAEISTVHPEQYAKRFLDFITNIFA

[2] = target: PIKFYVE (Homo sapiens, UniProt Q9Y2I7); experiment: as above; type: cell-based; conditions: A-375
Chain of PIKFYVE (Q9Y2I7 2-2098): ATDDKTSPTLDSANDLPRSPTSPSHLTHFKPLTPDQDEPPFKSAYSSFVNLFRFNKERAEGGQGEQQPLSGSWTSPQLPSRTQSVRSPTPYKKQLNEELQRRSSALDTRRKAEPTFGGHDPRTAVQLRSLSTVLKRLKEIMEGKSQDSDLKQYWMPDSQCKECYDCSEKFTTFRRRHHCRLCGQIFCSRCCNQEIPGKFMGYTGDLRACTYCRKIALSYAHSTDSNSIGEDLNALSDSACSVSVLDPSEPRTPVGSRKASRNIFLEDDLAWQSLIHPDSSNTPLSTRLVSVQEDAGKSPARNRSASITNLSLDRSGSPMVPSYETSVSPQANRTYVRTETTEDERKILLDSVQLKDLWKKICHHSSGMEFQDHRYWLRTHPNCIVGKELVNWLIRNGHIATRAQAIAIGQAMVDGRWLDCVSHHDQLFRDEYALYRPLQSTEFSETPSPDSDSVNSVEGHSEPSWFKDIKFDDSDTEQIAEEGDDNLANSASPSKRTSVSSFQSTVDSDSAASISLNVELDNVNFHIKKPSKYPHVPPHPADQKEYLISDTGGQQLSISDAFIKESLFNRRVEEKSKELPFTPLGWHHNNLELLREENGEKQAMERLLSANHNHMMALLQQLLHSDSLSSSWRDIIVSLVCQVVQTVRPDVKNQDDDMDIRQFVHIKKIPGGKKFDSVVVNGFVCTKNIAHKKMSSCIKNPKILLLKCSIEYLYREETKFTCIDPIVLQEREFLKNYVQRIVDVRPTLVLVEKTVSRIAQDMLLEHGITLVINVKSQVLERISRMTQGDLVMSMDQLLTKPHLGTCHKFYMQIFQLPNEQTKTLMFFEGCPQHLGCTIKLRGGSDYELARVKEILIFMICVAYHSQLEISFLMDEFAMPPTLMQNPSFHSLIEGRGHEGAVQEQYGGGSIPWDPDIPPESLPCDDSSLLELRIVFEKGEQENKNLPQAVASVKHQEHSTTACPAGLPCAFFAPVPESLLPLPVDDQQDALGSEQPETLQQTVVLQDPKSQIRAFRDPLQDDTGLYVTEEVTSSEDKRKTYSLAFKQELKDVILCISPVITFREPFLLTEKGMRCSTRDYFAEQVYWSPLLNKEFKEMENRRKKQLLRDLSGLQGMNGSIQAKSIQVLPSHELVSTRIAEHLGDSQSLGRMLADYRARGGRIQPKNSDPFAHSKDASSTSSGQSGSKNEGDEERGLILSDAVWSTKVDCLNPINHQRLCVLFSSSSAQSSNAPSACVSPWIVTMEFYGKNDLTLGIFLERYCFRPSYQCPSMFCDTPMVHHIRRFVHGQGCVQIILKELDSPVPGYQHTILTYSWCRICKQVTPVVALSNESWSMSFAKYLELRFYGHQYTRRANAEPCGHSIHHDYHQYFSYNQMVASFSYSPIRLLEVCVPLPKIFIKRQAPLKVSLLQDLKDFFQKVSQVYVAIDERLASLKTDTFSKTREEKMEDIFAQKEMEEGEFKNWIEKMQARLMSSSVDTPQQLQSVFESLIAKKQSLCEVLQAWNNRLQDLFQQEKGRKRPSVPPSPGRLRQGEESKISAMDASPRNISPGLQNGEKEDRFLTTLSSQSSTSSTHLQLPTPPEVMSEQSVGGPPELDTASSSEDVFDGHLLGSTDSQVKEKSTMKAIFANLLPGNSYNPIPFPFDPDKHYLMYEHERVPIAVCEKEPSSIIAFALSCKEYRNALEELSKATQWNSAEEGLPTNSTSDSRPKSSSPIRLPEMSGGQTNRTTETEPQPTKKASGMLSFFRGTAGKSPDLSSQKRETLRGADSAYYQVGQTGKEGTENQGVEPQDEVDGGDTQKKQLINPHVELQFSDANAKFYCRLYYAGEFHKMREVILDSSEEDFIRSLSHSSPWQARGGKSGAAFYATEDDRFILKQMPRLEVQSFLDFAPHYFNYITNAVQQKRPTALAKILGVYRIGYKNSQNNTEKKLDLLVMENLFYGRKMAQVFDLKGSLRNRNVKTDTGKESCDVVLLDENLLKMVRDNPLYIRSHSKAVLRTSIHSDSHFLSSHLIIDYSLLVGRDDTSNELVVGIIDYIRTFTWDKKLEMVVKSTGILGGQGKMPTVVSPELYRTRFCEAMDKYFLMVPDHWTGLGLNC

[3] = target: T2, CHUK/IKKA (Homo sapiens, UniProt O15111); experiment: KiNativ ATP-probe chemoproteomics in A375 cells treated with WX8; type: cell-based; conditions: A-375
T2 sequence (O15111 1-745): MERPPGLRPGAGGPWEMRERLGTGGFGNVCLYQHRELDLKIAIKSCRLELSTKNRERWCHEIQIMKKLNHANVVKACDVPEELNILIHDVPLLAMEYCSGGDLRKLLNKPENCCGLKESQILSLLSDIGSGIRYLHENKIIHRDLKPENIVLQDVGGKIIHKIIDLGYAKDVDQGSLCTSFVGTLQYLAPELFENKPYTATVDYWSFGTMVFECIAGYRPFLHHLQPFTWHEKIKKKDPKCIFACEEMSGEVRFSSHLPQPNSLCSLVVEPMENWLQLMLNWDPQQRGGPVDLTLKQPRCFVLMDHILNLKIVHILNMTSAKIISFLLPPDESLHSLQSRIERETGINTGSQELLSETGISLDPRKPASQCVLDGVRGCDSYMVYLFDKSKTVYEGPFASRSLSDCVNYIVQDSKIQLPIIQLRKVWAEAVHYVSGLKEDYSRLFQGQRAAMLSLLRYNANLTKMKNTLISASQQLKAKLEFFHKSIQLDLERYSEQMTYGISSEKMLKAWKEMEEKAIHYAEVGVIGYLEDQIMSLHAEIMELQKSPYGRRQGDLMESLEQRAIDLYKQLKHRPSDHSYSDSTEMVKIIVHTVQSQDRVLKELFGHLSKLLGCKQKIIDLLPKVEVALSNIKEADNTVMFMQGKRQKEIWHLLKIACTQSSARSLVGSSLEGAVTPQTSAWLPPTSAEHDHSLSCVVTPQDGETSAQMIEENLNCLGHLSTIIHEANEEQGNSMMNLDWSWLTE

Structure (SMILES): C(=NNc1nc(Nc2ccccc2)nc(N2CCOCC2)n1)c1c[nH]c2ccccc12 [WX8, 1H-indole-3-carbaldehyde (4-anilino-6-[4-morpholinyl]-1,3,5-triazin-2-yl)hydrazone]
- IC50 [1]: ~1 µM
- inhibition at 1 µM [2]: 97%
- inhibition at 1 µM [3]: 39%

— article PMC10392749, “PIP5K1C phosphoinositide kinase deficiency distinguishes PIKFYVE-dependent cancer cells from non-malignant cells” (Autophagy, 2023)
